Results taken from publication PMC3914206.

Key:
Experiment in all cases: KiNativ chemical proteomics profiling in HeLa and PC3 cell lysates
[1] = target: T1, selected panels of kinases in HeLa and PC3 cell lysates (Homo sapiens, UniProt Q9Y6E0); type: binding; details: 10 uM; proteome HEL; peptide DIk[…]; labeling site Lys2
T1 construct: endogenous in cells; host or cells: HeLa and PC3 cell lysates

[2] = target: T2, selected panels of kinases in HeLa and PC3 cell lysates (Homo sapiens, UniProt Q96J92); type: binding; details: 10 uM; Wnk4; peptide DLk[…]; proteome PC3; labeling site Lys2
T2 construct: endogenous in cells; host or cells: HeLa and PC3 cell lysates

[3] = target: T3, selected panels of kinases in HeLa and PC3 cell lysates (Homo sapiens, UniProt Q13464); type: binding; details: 10 uM; ROCK1; peptide kLQLELNQER; proteome PC3; labeling site Other
T3 construct: endogenous in cells; host or cells: HeLa and PC3 cell lysates

[4] = target: T4, selected panels of kinases in HeLa and PC3 cell lysates (Homo sapiens, UniProt Q9P2K8); type: binding; details: 10 uM
T4 construct: endogenous in cells; host or cells: HeLa and PC3 cell lysates

[5] = target: T5, selected panels of kinases in HeLa and PC3 cell lysates (Homo sapiens, UniProt O14936); type: binding; details: 10 uM; proteome PC3; peptide ETGQQFAVkIVDVAK; labeling site Lys1
T5 construct: endogenous in cells; host or cells: HeLa and PC3 cell lysates

[6] = system: selected panels of kinases in HeLa and PC3 cell lysates; type: binding, human; details: 10 uM; for % Inhibition PI4KA,PI4KAP2: peptide SGTPMQSAAkAPYLAK, labeling site ATP; for % Inhibiton, MAP3K2,MAP3K3: peptide DIkGANILR; for % Inhibiton, IKKe,TBK1: peptide DIkPGNIMR; for % Inhibiton, JNK1,JNK2,JNK3: peptide DLkPSNIVVK; for % Inhibiton, MAP2K1,MAP2K2: peptide DVkPSNILVNSR
[7] = target: T6, selected panels of kinases in HeLa and PC3 cell lysates (Homo sapiens, UniProt Q13418); type: binding; details: 10 uM
T6 construct: endogenous in cells; host or cells: HeLa and PC3 cell lysates
T6 sequence (Q13418 1-452): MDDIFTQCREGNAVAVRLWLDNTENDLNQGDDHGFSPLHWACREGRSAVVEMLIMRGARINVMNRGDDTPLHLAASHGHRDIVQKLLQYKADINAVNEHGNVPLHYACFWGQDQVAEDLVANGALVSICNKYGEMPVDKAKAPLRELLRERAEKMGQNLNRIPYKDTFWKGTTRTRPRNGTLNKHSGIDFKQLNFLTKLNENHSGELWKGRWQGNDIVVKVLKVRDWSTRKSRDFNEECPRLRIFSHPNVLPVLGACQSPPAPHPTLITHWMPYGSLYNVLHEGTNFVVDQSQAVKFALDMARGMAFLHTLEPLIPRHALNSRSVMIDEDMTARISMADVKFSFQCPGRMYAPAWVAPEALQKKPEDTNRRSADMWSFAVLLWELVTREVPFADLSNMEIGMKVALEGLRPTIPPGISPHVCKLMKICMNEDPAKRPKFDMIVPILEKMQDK

[8] = target: T7, selected panels of kinases in HeLa and PC3 cell lysates (Homo sapiens, UniProt Q13164); type: binding
T7 construct: endogenous in cells; host or cells: HeLa and PC3 cell lysates

[9] = target: T8, selected panels of kinases in HeLa and PC3 cell lysates (Homo sapiens, UniProt Q8TBX8); type: binding; details: 10 uM, PIP4K2C, labeling site ATP
T8 construct: endogenous in cells; host or cells: HeLa and PC3 cell lysates
T8 sequence (Q8TBX8 1-421): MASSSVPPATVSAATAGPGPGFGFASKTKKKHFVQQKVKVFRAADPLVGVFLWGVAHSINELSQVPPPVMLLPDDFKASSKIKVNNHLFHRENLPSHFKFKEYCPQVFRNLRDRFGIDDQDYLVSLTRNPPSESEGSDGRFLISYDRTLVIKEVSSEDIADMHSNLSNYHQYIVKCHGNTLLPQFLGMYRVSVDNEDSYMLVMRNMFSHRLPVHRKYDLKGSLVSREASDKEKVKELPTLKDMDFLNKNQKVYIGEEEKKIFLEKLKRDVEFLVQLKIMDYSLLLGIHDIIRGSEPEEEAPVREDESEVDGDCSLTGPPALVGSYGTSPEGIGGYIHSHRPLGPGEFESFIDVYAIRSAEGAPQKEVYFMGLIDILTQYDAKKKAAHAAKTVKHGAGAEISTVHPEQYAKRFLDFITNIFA

[10] = target: T9, selected panels of kinases in HeLa and PC3 cell lysates (Homo sapiens, UniProt P23743); type: binding; details: 10 uM; proteome HEL; peptide […]kSGGK; labeling site ATP
T9 construct: endogenous in cells; host or cells: HeLa and PC3 cell lysates

[11] = target: T10, selected panels of kinases in HeLa and PC3 cell lysates (Homo sapiens, UniProt O75716); type: binding; details: 10 uM, peptide DLk[…], labeling site Lys2
T10 construct: endogenous in cells; host or cells: HeLa and PC3 cell lysates

[12] = proteome PC3, peptide DLk[…], labeling site Lys2
[13] = peptide DIk[…], proteome HEL, labeling site Lys2
[14] = peptide DIk[…], proteome PC3, labeling site Lys2
[15] = proteome HEL, labeling site Lys2
[16] = proteome HEL, peptide DLk[…], labeling site Lys2
[17] = proteome PC3, labeling site Lys2
[18] = proteome PC3, peptide DIk[…], labeling site Lys2

T4 sequence (Q9P2K8 whole entry): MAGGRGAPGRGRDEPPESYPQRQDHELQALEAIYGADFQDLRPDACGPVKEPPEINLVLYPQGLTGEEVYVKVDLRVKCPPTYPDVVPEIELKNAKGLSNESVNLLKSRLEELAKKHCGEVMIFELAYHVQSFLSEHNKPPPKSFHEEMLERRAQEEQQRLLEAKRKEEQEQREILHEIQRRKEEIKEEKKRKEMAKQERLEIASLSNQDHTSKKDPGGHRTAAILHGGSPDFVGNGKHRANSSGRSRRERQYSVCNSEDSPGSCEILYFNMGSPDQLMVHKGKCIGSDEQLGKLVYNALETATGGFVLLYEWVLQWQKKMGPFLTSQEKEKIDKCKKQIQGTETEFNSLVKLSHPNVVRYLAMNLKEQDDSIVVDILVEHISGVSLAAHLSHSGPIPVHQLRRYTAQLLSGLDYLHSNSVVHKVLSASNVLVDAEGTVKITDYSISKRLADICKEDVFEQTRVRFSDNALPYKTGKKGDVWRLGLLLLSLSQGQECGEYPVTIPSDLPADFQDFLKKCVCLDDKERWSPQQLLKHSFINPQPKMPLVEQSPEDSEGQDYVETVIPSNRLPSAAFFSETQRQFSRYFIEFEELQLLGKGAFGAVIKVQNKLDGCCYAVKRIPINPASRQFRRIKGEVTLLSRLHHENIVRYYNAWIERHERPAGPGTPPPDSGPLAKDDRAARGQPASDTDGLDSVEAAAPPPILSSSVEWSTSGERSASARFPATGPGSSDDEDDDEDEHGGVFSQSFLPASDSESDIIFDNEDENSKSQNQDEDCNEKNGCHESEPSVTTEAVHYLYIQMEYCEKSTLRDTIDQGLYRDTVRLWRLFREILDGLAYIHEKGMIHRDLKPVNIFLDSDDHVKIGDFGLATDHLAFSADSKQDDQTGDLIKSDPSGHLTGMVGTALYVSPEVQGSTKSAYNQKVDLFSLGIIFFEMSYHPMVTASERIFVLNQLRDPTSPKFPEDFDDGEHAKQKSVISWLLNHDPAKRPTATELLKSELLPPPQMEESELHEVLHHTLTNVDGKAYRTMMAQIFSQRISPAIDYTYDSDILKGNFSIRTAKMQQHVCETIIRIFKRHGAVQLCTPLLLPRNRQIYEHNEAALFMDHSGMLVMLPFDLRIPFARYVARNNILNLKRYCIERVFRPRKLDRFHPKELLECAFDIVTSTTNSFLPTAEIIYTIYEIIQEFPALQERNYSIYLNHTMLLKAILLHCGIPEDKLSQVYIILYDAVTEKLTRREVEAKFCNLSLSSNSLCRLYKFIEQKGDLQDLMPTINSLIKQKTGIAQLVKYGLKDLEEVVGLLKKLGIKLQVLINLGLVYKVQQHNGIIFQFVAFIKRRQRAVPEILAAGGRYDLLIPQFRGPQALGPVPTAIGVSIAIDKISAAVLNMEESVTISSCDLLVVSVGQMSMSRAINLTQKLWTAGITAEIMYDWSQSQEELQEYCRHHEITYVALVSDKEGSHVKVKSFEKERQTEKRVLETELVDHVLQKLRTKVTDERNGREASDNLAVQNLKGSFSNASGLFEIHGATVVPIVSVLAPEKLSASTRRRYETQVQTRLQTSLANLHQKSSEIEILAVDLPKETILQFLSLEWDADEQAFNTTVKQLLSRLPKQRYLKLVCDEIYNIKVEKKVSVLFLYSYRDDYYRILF
T7 sequence (Q13164 whole entry): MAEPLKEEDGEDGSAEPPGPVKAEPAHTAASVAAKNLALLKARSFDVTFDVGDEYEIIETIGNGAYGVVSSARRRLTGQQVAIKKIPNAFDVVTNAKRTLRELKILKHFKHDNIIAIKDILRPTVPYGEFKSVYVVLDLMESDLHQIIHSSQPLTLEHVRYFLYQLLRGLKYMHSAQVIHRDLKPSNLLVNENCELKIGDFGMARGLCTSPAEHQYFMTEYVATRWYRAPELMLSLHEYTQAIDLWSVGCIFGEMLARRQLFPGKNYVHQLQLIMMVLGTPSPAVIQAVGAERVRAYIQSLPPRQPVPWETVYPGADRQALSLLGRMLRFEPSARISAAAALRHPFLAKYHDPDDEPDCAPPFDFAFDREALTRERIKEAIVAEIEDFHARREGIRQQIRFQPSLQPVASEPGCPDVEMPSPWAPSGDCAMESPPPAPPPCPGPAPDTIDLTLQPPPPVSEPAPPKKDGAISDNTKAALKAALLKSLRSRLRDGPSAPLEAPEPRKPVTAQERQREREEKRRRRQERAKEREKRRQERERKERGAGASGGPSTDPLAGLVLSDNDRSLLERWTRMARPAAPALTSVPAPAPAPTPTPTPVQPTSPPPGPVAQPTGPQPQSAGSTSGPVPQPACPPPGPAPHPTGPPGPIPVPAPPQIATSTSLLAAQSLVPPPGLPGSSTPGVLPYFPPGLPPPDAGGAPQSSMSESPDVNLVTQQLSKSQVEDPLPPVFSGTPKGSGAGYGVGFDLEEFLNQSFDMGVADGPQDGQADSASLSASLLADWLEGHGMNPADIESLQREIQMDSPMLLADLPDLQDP
T10 sequence (O75716 whole entry): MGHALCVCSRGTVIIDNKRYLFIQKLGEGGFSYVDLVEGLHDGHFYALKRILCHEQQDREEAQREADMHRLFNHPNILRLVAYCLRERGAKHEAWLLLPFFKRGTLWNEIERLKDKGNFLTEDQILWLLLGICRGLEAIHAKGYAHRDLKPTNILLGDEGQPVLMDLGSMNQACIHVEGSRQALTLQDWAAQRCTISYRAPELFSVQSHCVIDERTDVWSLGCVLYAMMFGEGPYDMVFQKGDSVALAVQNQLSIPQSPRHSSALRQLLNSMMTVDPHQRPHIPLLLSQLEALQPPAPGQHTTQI
T9 sequence (P23743 whole entry): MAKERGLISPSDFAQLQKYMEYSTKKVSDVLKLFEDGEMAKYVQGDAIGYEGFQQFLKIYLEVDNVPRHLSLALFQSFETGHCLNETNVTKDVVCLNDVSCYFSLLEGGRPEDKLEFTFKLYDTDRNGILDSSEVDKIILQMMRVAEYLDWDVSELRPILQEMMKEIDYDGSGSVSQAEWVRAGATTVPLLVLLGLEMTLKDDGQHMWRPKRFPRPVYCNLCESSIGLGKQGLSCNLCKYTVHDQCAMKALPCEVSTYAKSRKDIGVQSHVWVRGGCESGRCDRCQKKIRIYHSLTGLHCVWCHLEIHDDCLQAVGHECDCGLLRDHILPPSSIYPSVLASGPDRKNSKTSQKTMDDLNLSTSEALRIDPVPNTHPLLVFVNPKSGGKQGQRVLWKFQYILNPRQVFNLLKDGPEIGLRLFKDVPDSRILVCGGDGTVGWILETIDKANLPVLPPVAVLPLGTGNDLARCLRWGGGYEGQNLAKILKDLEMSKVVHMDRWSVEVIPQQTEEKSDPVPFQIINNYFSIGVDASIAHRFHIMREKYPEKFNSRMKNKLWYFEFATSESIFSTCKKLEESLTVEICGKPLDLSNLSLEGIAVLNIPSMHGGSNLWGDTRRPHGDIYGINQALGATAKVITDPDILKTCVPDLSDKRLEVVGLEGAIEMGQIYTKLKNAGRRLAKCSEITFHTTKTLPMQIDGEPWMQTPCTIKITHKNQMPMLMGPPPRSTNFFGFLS
T5 sequence (O14936 whole entry): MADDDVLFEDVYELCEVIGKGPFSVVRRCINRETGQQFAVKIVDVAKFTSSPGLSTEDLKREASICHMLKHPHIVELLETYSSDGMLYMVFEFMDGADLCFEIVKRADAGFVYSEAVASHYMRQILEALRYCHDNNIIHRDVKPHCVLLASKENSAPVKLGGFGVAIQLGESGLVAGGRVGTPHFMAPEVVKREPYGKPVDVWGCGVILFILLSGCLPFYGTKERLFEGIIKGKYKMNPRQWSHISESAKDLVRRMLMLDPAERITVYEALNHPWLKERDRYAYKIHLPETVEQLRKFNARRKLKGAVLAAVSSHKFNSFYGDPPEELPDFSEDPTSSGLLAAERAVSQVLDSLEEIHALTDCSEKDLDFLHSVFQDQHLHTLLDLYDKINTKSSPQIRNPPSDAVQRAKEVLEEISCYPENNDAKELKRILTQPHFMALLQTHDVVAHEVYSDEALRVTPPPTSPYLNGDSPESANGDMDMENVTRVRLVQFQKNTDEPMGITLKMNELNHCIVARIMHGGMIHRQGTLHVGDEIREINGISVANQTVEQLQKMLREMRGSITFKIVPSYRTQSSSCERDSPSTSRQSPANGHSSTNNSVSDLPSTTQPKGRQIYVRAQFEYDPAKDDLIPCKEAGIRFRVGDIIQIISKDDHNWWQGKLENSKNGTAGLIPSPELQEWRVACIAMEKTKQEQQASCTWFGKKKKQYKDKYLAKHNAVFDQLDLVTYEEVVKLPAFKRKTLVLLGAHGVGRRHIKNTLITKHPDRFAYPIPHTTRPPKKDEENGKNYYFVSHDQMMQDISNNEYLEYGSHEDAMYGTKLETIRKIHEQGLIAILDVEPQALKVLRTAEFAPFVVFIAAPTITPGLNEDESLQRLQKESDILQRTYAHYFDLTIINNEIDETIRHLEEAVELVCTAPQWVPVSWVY
T1 sequence (Q9Y6E0 whole entry): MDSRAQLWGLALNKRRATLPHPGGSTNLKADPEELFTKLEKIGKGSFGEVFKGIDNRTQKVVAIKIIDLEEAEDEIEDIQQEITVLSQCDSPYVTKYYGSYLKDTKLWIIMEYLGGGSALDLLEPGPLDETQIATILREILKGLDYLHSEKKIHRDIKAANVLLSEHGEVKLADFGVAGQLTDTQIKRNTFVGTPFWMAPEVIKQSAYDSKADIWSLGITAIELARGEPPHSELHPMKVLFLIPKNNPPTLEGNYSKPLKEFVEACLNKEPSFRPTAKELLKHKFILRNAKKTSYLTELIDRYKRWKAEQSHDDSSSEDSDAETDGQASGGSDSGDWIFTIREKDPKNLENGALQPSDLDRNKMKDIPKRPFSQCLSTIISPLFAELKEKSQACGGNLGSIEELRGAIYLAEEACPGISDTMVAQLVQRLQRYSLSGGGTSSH

For `CCOc1cc(C(=O)N2CCC(N3CCN(C)CC3)CC2)ccc1Nc1ncc2c(n1)N(C1CCCC1)c1ccccc1C(=O)N2C` [Compound 26], the “% Inhibiton, MST3” value [1] was 9.7%, the “% Inhibition Wnk4” value [2] was -2.1% and the “% Inhibition ROCK1” value [3] was -8.1%. For the same compound, the “% Inhibiton, GCN2” value ([4]; proteome HEL, peptide LDGCCYAVkR, labeling site Lys1) was -6.3%, the “% Inhibiton, GCN2” value [4, 12] was 1.6% and the “% Inhibiton, GCN2” value ([4]; proteome PC3, peptide LDGCCYAVkR, labeling site Lys1) was 6.4%. For the same compound, the “% Inhibiton, CASK” value [5] was -36.1%, the “% Inhibition PI4KA,PI4KAP2” value ([6]; proteome HEL) was -4.3% and the “% Inhibition PI4KA,PI4KAP2” value ([6]; proteome PC3) was -19.2%. The “% Inhibition PKCa,PKCb” value ([6]; PKCa,PKCb, peptide DLk[…], proteome PC3, labeling site Lys2) was -2.9%, the “% Inhibition PKD1,PKD2” value ([6]; PKD1,PKD2, peptide NIVHCDLk[…], proteome HEL, labeling site Lys2) was 16.4% and the “% Inhibition ROCK1,ROCK2” value ([6]; ROCK1,ROCK2, peptide DVkPDNMLLDK, proteome PC3, labeling site Lys2) was -4.8%. For the same compound, the “% Inhibition RSK1,RSK2 domain1” value ([6]; RSK1,RSK2 domain1, peptide DLk[…], proteome HEL, labeling site Lys2) was 13.4%, the “% Inhibition RSK1,RSK4 domain1” value ([6]; RSK1,RSK4 domain1, peptide VLGQGSFGkVFLVR, proteome HEL, labeling site ATP Loop) was 0.4% and the “% Inhibition SRPK1,SRPK2” value ([6]; SRPK1,SRPK2, peptide FVAMkVVK, proteome PC3, labeling site Lys1) was -3.7%. For the same compound, the “% Inhibition TAO1,TAO3” value [6, 13] was -15.8%, the “% Inhibition TAO1,TAO3” value [6, 14] was 1.7% and the “% Inhibition Wnk1,Wnk2,Wnk3” value ([6]; Wnk1,Wnk2,Wnk3, peptide DLk[…], proteome HEL, labeling site Lys2) was 1.8%. The “% Inhibition Wnk1,Wnk2,Wnk4” value ([6]; Wnk1,Wnk2,Wnk4, peptide IGDLGLATLkR, proteome PC3, labeling site Activation Loop) was -6.2%, the “% Inhibition ZC1/HGK,ZC2/TNIK,ZC3/MINK” value [6, 13] was -1.1% and the “% Inhibition ZC1/HGK,ZC2/TNIK,ZC3/MINK” value [6, 14] was -12.1%. For the same compound, the “% Inhibition p70S6K,p70S6Kb” value ([6]; p70S6K,p70S6Kb, peptide GGYGkVFQVR, proteome PC3, labeling site ATP Loop) was -1%, the “% Inhibiton, MAP3K2,MAP3K3” value [6, 15] was -4.4% and the “% Inhibiton, IKKe,TBK1” value [6, 15] was -55%. The “% Inhibiton, NEK6,NEK7” value ([6]; proteome HEL, peptide DIk[…], labeling site Lys2) was 6.4%, the “% Inhibiton, JNK1,JNK2,JNK3” value [6, 15] was 14% and the “% Inhibiton, AMPKa1,AMPKa2” value [6, 16] was -22.8%. The “% Inhibiton, MARK2,MARK3” value [6, 16] was -16.8%, the “% Inhibiton, MAST2,MAST4” value [6, 16] was -23.7% and the “% Inhibiton, p38d,p38g” value [6, 16] was -11.7%. The “% Inhibiton, MAP2K1,MAP2K2” value [6, 15] was 17.5%, the “% Inhibiton, MYO3A,MYO3B” value ([6]; proteome HEL, peptide DVk[…], labeling site Lys2) was 11.5% and the “% Inhibiton, BMX,BTK” value ([6]; proteome HEL, peptide GQYDVAIkMIK, labeling site Lys1) was -22.5%. The “% Inhibiton, MAP3K5,MAP3K6,MAP3K7” value ([6]; proteome HEL, peptide IAIkEIPERDSR, labeling site Lys1) was 2%, the “% Inhibiton, KSR1,KSR2” value ([6]; proteome HEL, peptide SkNVFYDNGK, labeling site Protein Kinase Domain) was 12.3% and the “% Inhibiton, AMPKa1,AMPKa2” value ([6]; proteome HEL, peptide VAVkILNR, labeling site Lys1) was 6%. The “% Inhibiton, MSK1,MSK2 domain1” value ([6]; proteome HEL, peptide VLGTGAYGkVFLVR, labeling site ATP Loop) was 7.4%, the “% Inhibiton, ABL,ARG” value ([6]; proteome HEL, peptide […]kFPIK, labeling site Activation Loop) was -6.4% and the “% Inhibiton, MAP3K2,MAP3K3” value [6, 17] was 5.5%. For the same compound, the “% Inhibiton, IKKe,TBK1” value [6, 17] was -4.6%, the “% Inhibiton, MST1,MST2” value [6, 18] was -5.4% and the “% Inhibiton, MST4,YSK1” value [6, 18] was 0.5%. For the same compound, the “% Inhibiton, NEK6,NEK7” value [6, 18] was -4.6%, the “% Inhibiton, CaMK2a,CaMK2b,CaMK2d,CaMK2g” value ([6]; proteome PC3, peptide DLkPENLLLASK, labeling site Lys2) was -3.7% and the “% Inhibiton, JNK1,JNK2,JNK3” value [6, 17] was 12.2%. The “% Inhibiton, AMPKa1,AMPKa2” value [6, 12] was 12.1%, the “% Inhibiton, CDK11,CDK8” value [6, 12] was 7.9% and the “% Inhibiton, MARK2,MARK3” value [6, 12] was 3.7%. The “% Inhibiton, p38d,p38g” value [6, 12] was 8.3%, the “% Inhibiton, MAP2K1,MAP2K2” value [6, 17] was 7.9% and the “% Inhibiton, CK1d,CK1e” value ([6]; proteome PC3, peptide DVk[…], labeling site Lys2) was 13%. The “% Inhibiton, MARK3,MARK4” value ([6]; proteome PC3, peptide EVAIkIIDK, labeling site Lys1) was 0.6%, the “% Inhibiton, FYN,SRC,YES” value ([6]; proteome PC3, peptide QGAk[…], labeling site Activation Loop) was 5.5% and the “% Inhibiton, AMPKa1,AMPKa2” value ([6]; proteome PC3, peptide VAVkILNR, labeling site Lys1) was 6.9%. For the same compound, the “% Inhibiton, ILK” value ([7]; proteome HEL, peptide WQGNDIVVkVLK, labeling site Lys1) was 19.8%, the “% Inhibiton, ILK” value ([7]; proteome PC3, peptide ISMADVkFSFQCPGR, labeling site Protein Kinase Domain) was 2% and the “% Inhibiton, ILK” value ([7]; proteome PC3, peptide WQGNDIVVkVLK, labeling site Lys1) was -69.5%. The “ERK5 target occupancy (KiNativ)” value ([8]; 10 μM, HeLa and PC3 cell lysates, only ERK5 exceeded this level) was “higher than 90%”, the “% Inhibiton, Erk5” value ([8]; 10 uM, proteome HEL, peptide DLk[…], labeling site Lys2) was 94.3% and the “% Inhibition PIP4K2C” value ([9]; peptide ELPTLkDMDFLNK, proteome PC3) was -6.2%. For the same compound, the “% Inhibition PIP4K2C” value ([9]; peptide TLVIk[…], proteome HEL) was 4.7%, the “% Inhibition PIP4K2C” value ([9]; peptide TLVIk[…], proteome PC3) was -5.8% and the “% Inhibiton, DGKA” value [10] was 5.7%. The “% Inhibiton, MPSK1” value ([11]; proteome HEL) was -9.4% and the “% Inhibiton, MPSK1” value ([11]; proteome PC3) was 5.8%.
